Data from PubChem BioAssay (NCI).
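Five compound concentrations were applied to cells in 96-well plates for 48 hours; endpoints were derived by simple linear interpolation of the resulting dose-response curve. At the TGI there is no net growth.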

Experiments:
Assay in all cases: NCI tumour cell line growth inhibition, 48 h
786-0 renal = test system: 786-0 renal
A498 renal = test system: A498 renal
A549 NSCLC = test system: A549 NSCLC
ACHN renal = test system: ACHN renal
BT-549 breast = test system: BT-549 breast
CAKI-1 renal = test system: CAKI-1 renal
CCRF-CEM leukemia = test system: CCRF-CEM leukemia
COLO 205 colon = test system: COLO 205 colon
DU-145 prostate = test system: DU-145 prostate
EKVX NSCLC = test system: EKVX NSCLC
HCC-2998 colon = test system: HCC-2998 colon
HCT-116 colon = test system: HCT-116 colon
HCT-15 colon = test system: HCT-15 colon
HOP-62 NSCLC = test system: HOP-62 NSCLC
HOP-92 NSCLC = test system: HOP-92 NSCLC
HS 578T breast = test system: HS 578T breast
HT29 colon = test system: HT29 colon
K-562 leukemia = test system: K-562 leukemia
KM12 colon = test system: KM12 colon
LOX IMVI melanoma = test system: LOX IMVI melanoma
M14 melanoma = test system: M14 melanoma
MALME-3M melanoma = test system: MALME-3M melanoma
MCF7 breast = test system: MCF7 breast
MDA-MB-231 breast = test system: MDA-MB-231 breast
MDA-MB-435 = test system: MDA-MB-435
MDA-N = test system: MDA-N
MOLT-4 leukemia = test system: MOLT-4 leukemia
NCI-H226 lung = test system: NCI-H226 lung
NCI-H23 lung = test system: NCI-H23 lung
NCI-H460 lung = test system: NCI-H460 lung
NCI-H522 lung = test system: NCI-H522 lung
NCI/ADR-RES ovarian = test system: NCI/ADR-RES ovarian
OVCAR-3 ovarian = test system: OVCAR-3 ovarian
OVCAR-4 ovarian = test system: OVCAR-4 ovarian
OVCAR-5 ovarian = test system: OVCAR-5 ovarian
OVCAR-8 ovarian = test system: OVCAR-8 ovarian
PC-3 prostate = test system: PC-3 prostate
RPMI-8226 leukemia = test system: RPMI-8226 leukemia
RXF 393 renal = test system: RXF 393 renal
SF-268 CNS = test system: SF-268 CNS
SF-295 CNS = test system: SF-295 CNS
SF-539 CNS = test system: SF-539 CNS
SK-MEL-2 melanoma = test system: SK-MEL-2 melanoma
SK-MEL-28 melanoma = test system: SK-MEL-28 melanoma
SK-MEL-5 melanoma = test system: SK-MEL-5 melanoma
SK-OV-3 ovarian = test system: SK-OV-3 ovarian
SN12C renal = test system: SN12C renal
SNB-19 CNS = test system: SNB-19 CNS
SNB-75 CNS = test system: SNB-75 CNS
SW-620 colon = test system: SW-620 colon
T-47D breast = test system: T-47D breast
TK-10 renal = test system: TK-10 renal
U251 CNS = test system: U251 CNS
UACC-257 melanoma = test system: UACC-257 melanoma
UACC-62 melanoma = test system: UACC-62 melanoma
UO-31 renal = test system: UO-31 renal
HL-60(TB) leukemia = test system: HL-60(TB) leukemia
SR leukemia = test system: SR leukemia

SMILES: COc1ccc([C@H]2[C@H]3COC(=O)[C@H]3C(C#N)=C3Sc4ccccc4N32)cc1
- TGI (786-0 renal): > 100 µM
- TGI (A498 renal): 98.3 µM
- TGI (A549 NSCLC): > 100 µM
- TGI (ACHN renal): > 100 µM
- TGI (BT-549 breast): 48.9 µM
- TGI (CAKI-1 renal): > 62.3 µM
- TGI (CCRF-CEM leukemia): 47.7 µM
- TGI (COLO 205 colon): 34.5 µM
- TGI (DU-145 prostate): 69.7 µM
- TGI (EKVX NSCLC): > 100 µM
- TGI (HCC-2998 colon): > 100 µM
- TGI (HCT-116 colon): > 100 µM
- TGI (HCT-15 colon): > 87.4 µM
- TGI (HOP-62 NSCLC): > 100 µM
- TGI (HOP-92 NSCLC): > 100 µM
- TGI (HS 578T breast): > 100 µM
- TGI (HT29 colon): 37.7 µM
- TGI (K-562 leukemia): > 100 µM
- TGI (KM12 colon): > 91.2 µM
- TGI (LOX IMVI melanoma): > 62.9 µM
- TGI (M14 melanoma): > 100 µM
- TGI (MALME-3M melanoma): > 100 µM
- TGI (MCF7 breast): > 100 µM
- TGI (MDA-MB-231 breast): > 67.2 µM
- TGI (MDA-MB-435): > 100 µM
- TGI (MDA-N): > 74.4 µM
- TGI (MOLT-4 leukemia): > 67.7 µM
- TGI (NCI-H226 lung): > 100 µM
- TGI (NCI-H23 lung): 78.8 µM
- TGI (NCI-H460 lung): > 100 µM
- TGI (NCI-H522 lung): > 68.2 µM
- TGI (NCI/ADR-RES ovarian): > 62.5 µM
- TGI (OVCAR-3 ovarian): 68 µM
- TGI (OVCAR-4 ovarian): > 100 µM
- TGI (OVCAR-5 ovarian): > 100 µM
- TGI (OVCAR-8 ovarian): > 100 µM
- TGI (PC-3 prostate): > 100 µM
- TGI (RPMI-8226 leukemia): 72 µM
- TGI (RXF 393 renal): 38.4 µM
- TGI (SF-268 CNS): > 100 µM
- TGI (SF-295 CNS): > 90.8 µM
- TGI (SF-539 CNS): > 100 µM
- TGI (SK-MEL-2 melanoma): 56.7 µM
- TGI (SK-MEL-28 melanoma): > 100 µM
- TGI (SK-MEL-5 melanoma): > 57.3 µM
- TGI (SK-OV-3 ovarian): > 100 µM
- TGI (SN12C renal): 36.4 µM
- TGI (SNB-19 CNS): > 100 µM
- TGI (SNB-75 CNS): > 26.7 µM
- TGI (SW-620 colon): > 100 µM
- TGI (T-47D breast): > 82.5 µM
- TGI (TK-10 renal): > 100 µM
- TGI (U251 CNS): > 100 µM
- TGI (UACC-257 melanoma): > 100 µM
- TGI (UACC-62 melanoma): > 100 µM
- TGI (UO-31 renal): > 100 µM

SMILES: Cc1ccc2nc(SCC(=O)N=Nc3c(O)[nH]c4ccccc34)n(-c3ccccc3)c(=O)c2c1
- TGI (786-0 renal): 29.5 µM
- TGI (A498 renal): 28.1 µM
- TGI (A549 NSCLC): 28.6 µM
- TGI (ACHN renal): 26.7 µM
- TGI (CAKI-1 renal): 43.3 µM
- TGI (CCRF-CEM leukemia): 34.5 µM
- TGI (COLO 205 colon): 33 µM
- TGI (DU-145 prostate): 26.2 µM
- TGI (EKVX NSCLC): 29.2 µM
- TGI (HCC-2998 colon): 28.6 µM
- TGI (HCT-116 colon): 28.4 µM
- TGI (HCT-15 colon): 40.5 µM
- TGI (HL-60(TB) leukemia): 62.2 µM
- TGI (HOP-62 NSCLC): 24.6 µM
- TGI (HOP-92 NSCLC): 29.6 µM
- TGI (HS 578T breast): 46.2 µM
- TGI (HT29 colon): 33.5 µM
- TGI (K-562 leukemia): 61.9 µM
- TGI (KM12 colon): 27.9 µM
- TGI (LOX IMVI melanoma): 29.8 µM
- TGI (M14 melanoma): 29.8 µM
- TGI (MALME-3M melanoma): 34.7 µM
- TGI (MCF7 breast): 29.6 µM
- TGI (MDA-MB-231 breast): 22.8 µM
- TGI (MDA-MB-435): 33.7 µM
- TGI (MDA-N): 37.6 µM
- TGI (MOLT-4 leukemia): 33.2 µM
- TGI (NCI-H226 lung): 35.2 µM
- TGI (NCI-H23 lung): 33.1 µM
- TGI (NCI-H460 lung): 29 µM
- TGI (NCI/ADR-RES ovarian): 26.1 µM
- TGI (OVCAR-3 ovarian): 41.9 µM
- TGI (OVCAR-4 ovarian): 25.9 µM
- TGI (OVCAR-5 ovarian): 29.3 µM
- TGI (PC-3 prostate): 36.1 µM
- TGI (RPMI-8226 leukemia): 35.7 µM
- TGI (RXF 393 renal): 27 µM
- TGI (SF-268 CNS): 26.6 µM
- TGI (SF-295 CNS): 29.5 µM
- TGI (SF-539 CNS): 19 µM
- TGI (SK-MEL-2 melanoma): 13.2 µM
- TGI (SK-MEL-28 melanoma): 31.2 µM
- TGI (SK-MEL-5 melanoma): 29.1 µM
- TGI (SK-OV-3 ovarian): 26.7 µM
- TGI (SN12C renal): 29.1 µM
- TGI (SNB-19 CNS): 40.6 µM
- TGI (SR leukemia): 36.7 µM
- TGI (SW-620 colon): 61.4 µM
- TGI (T-47D breast): 34 µM
- TGI (TK-10 renal): 29.2 µM
- TGI (U251 CNS): 24.8 µM
- TGI (UACC-257 melanoma): 55.7 µM
- TGI (UACC-62 melanoma): 30.6 µM
- TGI (UO-31 renal): 12.9 µM
